# How the values were obtained:
# [1] = Excipient compatibility study with crystalline Form A: HPLC assay of % drug; assay type: physicochemical
# Method: Physical mixtures of crystalline Form A and fourteen processing excipients, gelatin and hydroxypropyl methylcellulose capsules, and drug substance alone were prepared. […] Each sample group was stored under the following conditions: 5° C. (for time=0 testing), 40° C./75% RH (relative humidity) one month, and 40° C./75% RH three months. Bulk drug substance was weighed and added to a sample vial. De-ionized water was then measured (0.015 mL) and added to the vials designated as wet samples. The wet samples were then mixed using a vortex mixer for approximately 15 seconds to incorporate the water and the drug. Excipient was then weighed and added to appropriate vials. The contents of each vial were mixed for approximately 15 seconds using a vortex mixer to produce a uniform mixture of (wet or dry) drug/excipient. To prepare the capsule samples, the bulk drug substance was weighed directly into the capsule. The capsules were then placed into appropriate vials. Fifteen microliters of de-ionized water was added to the inside of capsules designated as wet samples. All samples were stored in 20 mL Type I clear glass scintillation vials with foil-lined screw-type vial caps were tightened by hand. Samples were stored in controlled room temperature/humidity until ready for testing. Other sample vials were stored at 40° C./75% RH unprotected from light and tested at one and three months. […] The vials were rinsed several times with diluent and added to the volumetric flasks. The contents of the capsules were transferred to 50 mL volumetric flasks and the capsule shells were also rinsed with diluent. Diluent was added to the volumetric flasks and they were sonicated for 10 minutes, then diluted to volume with diluent. The solutions were further diluted 5.0 mL into a 50 mL volumetric flask and brought to volume with diluent. These diluted solutions were used for the assay. All solutions were filtered through 0.45 micron PTFE filters, with the first 1-2 mL discarded before filling the HPLC autosampler vials. The diluted sample solutions were assayed against a reference standard of drug product prepared in a similar manner.
# [2] = Excipient compatibility study with crystalline Form A: Total Related Substance (TRS); assay type: physicochemical
# Method: Binary mixtures of drug with each excipient were prepared by physically mixing 50.0 mg (±2.0 mg) of drug substance with the specified proportion of each excipient. The stability of the drug in the presence of each excipient was studied in dry samples as well as with 30% w/w (relative to bulk drug weight) de-ionized water. Each sample group was stored under the following conditions: 5° C. (for time=0 testing), 40° C./75% RH (relative humidity) one month, and 40° C./75% RH three months.
# [3] = Solubility in water of the tartrate salt; assay type: physicochemical; conditions: tartrate salt versus compound of formula I
# Source text: The tartrate salt of pimavanserin may be prepared as an integrated part of the process for synthesizing the compound as described above by using tartaric acid as the salt forming acid. Alternatively, the tartrate salt may be formed by reaction of the isolated compound of formula I with tartaric acid.
# [4] = In vivo human and non-human animal studies
# [5] = wet conditions (30% w/w water added)
compound,measurement,setting,value
CC(C)COc1ccc(CNC(=O)N(Cc2ccc(F)cc2)C2CCN(C)CC2)cc1.CC(C)COc1ccc(CNC(=O)N(Cc2ccc(F)cc2)C2CCN(C)CC2)cc1.O=C(O)C(O)C(O)C(=O)O [#17 Drug Substance],% Drug One Month 40° C./75% RH,[1]; dry conditions,94.9%
same,% Drug Three Months 40° C./75% RH,[1]; dry conditions,95.9%
same,% Drug (time = 0),[1]; dry conditions,98.4%
same,% Drug One Month 40° C./75% RH,[1]; [5],91.2%
same,% Drug Three Months 40° C./75% RH,[1]; [5],93.5%
same,% Drug (time = 0),[1]; [5],98.5%
same,"Total related substance, 1 month - Dry","[2]; dry, 1 month 40° C./75% RH",1.38
same,"Total related substance, 3 month - Dry","[2]; dry, 3 month 40° C./75% RH",2.72
same,"Total related substance, Time 0 - Dry","[2]; dry, time 0",0.35
same,"Total related substance, 1 month - Wet","[2]; wet (30% w/w water), 1 month 40° C./75% RH",1.67
same,"Total related substance, 3 month - Wet","[2]; wet (30% w/w water), 3 month 40° C./75% RH",3.39
same,"Total related substance, Time 0 - Wet","[2]; wet (30% w/w water), time 0",0.36
tartrate salt of N-(4-fluorobenzyl)-N-(1-methylpiperidin-4-yl)-N′-(4-(2-methylpropyloxy)phenylmethyl)carbamide [pimavanserin tartrate],solubility in water,[3],improved solubility in water
"CC(C)COc1ccc(CNC(=O)N(Cc2ccc(F)cc2)C2CCN(C)CC2)cc1 [pimavanserin, N-(1-methylpiperidin-4-yl)-N-(4-fluorophenylmethyl)-N′-(4-(2-methylpropyloxy)phenylmethyl)carbamide]",in vivo activity,[4],"anti-psychotic, anti-dyskinesia, and anti-insomnia activity"

# Source: patent publication US20070264330A1 (priority 2006, published 2007)
